Measurements reported in patent US6737383B1, “Herbicidal oxadiazolidines” (priority 1999, dated 2004).

What was measured:
rape = experiment: Test B pre/postemergence rape; type: in vivo, Brassica napus
In short: (§1)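 Herbicidal effect was estimated by eye on a ten-point control scale after plants spent twelve to sixteen days in a greenhouse following soil or foliar treatment. Foliar sprays targeted plants at one to four leaves; all doses were formulated in a non-phytotoxic solvent with surfactant.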

blackgrass = experiment: Test B pre/postemergence blackgrass; type: in vivo, Alopecurus myosuroides
In short: as §1

wheat = experiment: Test B pre/postemergence wheat; type: in vivo, Triticum aestivum
In short: as §1

purple nutsedge = experiment: Test B pre/postemergence purple nutsedge; type: in vivo, Cyperus rotundus
In short: as §1

duck salad = experiment: Test B flood test duck salad; type: in vivo, Heteranthera limosa
In short: (§2)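 Flood test on plants grown to the 2-leaf stage; treated plants kept in greenhouse twelve to sixteen days, then visually rated against controls on a 0 (no effect) to 10 (complete control) scale.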

smallflower flatsedge = experiment: Test B flood test smallflower flatsedge; type: in vivo, Cyperus difformis
In short: as §2

cocklebur = experiment: Test B pre/postemergence cocklebur; type: in vivo, Xanthium strumarium
In short: as §1

surinam grass = experiment: Test B pre/postemergence surinam grass; type: in vivo, Brachiaria decumbens
In short: as §1

giant foxtail = experiment: Test B pre/postemergence giant foxtail; type: in vivo, Setaria faberii
In short: as §1

pigweed = experiment: Test B pre/postemergence pigweed; type: in vivo, Amaranthus retroflexus
In short: as §1

soybean = experiment: Test B pre/postemergence soybean; type: in vivo, Glycine max
In short: as §1

morningglory = experiment: Test B pre/postemergence morningglory; type: in vivo, Ipomoea hederacea
In short: as §1

bamyardgrass = experiment: Test B flood test barnyardgrass; type: in vivo, Echinochloa crus-galli
In short: as §2

wild oat = experiment: Test B pre/postemergence wild oat; type: in vivo, Avena fatua
In short: as §1

velvetleaf = experiment: Test B pre/postemergence velvetleaf; type: in vivo, Abutilon theophrasti
In short: as §1

[1] = Postemergence, Rate 62 g/ha, scale 0 to 10, 0 is no effect, 10 is complete control
[2] = Postemergence, Rate 125 g/ha, scale of 0 to 10 where 0 is no effect and 10 is complete control
[3] = Postemergence, Rate 250 g/ha, scale of 0 to 10, 0 is no effect, 10 is complete control
[4] = Postemergence, Rate 500 g/ha, scale of 0 to 10 where 0 is no effect and 10 is complete control
[5] = Preemergence, Rate 62 g/ha, scale of 0 to 10 where 0 is no effect and 10 is complete control
[6] = Preemergence, Rate 125 g/ha, scale of 0 to 10 where 0 is no effect and 10 is complete control
[7] = Preemergence, Rate 250 g/ha, scale 0 to 10 (0 no effect, 10 complete control)
[8] = Preemergence, Rate 500 g/ha, scale of 0 to 10 where 0 is no effect and 10 is complete control
[9] = Rate 62 g/ha, flood test species, Pre-emergence, visual evaluation after twelve to sixteen days
[10] = Rate 125 g/ha, under heading Pre-emergence, flood test species, visual evaluation after twelve to sixteen days
[11] = Rate 250 g/ha, Pre-emergence (flood test species), scale 0 to 10, 0 is no effect, 10 is complete control
[12] = Rate 500 g/ha, Pre-emergence section of Table B, 0 to 10 scale (0 no effect, 10 complete control)

CC(C)N(C(=O)n1oc(=O)n(CC(=O)C2CCC2)c1=O)c1ccc(F)cc1 [Compound 640]
Plant response rating, Rape (rape; [1]): 0 | Plant response rating, Rape (rape; [2]): 0 | Rape plant response rating (rape; [3]): 0 | Plant response rating, Rape (rape; [4]): 0 | Rape plant response rating (rape; [5]): 0 | Rape plant response rating (rape; [6]): 0 | Plant response rating, Rape (rape; [7]): 3 | Plant response rating, Rape (rape; [8]): 6 | Plant response rating, Blackgrass (blackgrass; [1]): 0 | Plant response rating, Blackgrass (blackgrass; [2]): 4 | Plant response rating, Blackgrass (blackgrass; [4]): 5 | Blackgrass plant response rating (blackgrass; [5]): 0 | Blackgrass plant response rating (blackgrass; [6]): 0 | Plant response rating, Blackgrass (blackgrass; [7]): 0 | Plant response rating, Blackgrass (blackgrass; [8]): 8 | Plant response rating, Wheat (wheat; [1]): 0 | Plant response rating, Wheat (wheat; [2]): 0 | Wheat plant response rating (wheat; [3]): 0 | Wheat plant response rating (wheat; [5]): 0 | Wheat plant response rating (wheat; [6]): 0 | Plant response rating, Wheat (wheat; [7]): 0 | Plant response rating, Wheat (wheat; [8]): 2 | Plant response rating, Nutsedge (purple nutsedge; [1]): 0 | Plant response rating, Nutsedge (purple nutsedge; [2]): 0 | Nutsedge plant response rating (purple nutsedge; [3]): 0 | Nutsedge plant response rating (purple nutsedge; [5]): 0 | Nutsedge plant response rating (purple nutsedge; [6]): 0 | Plant response rating, Nutsedge (purple nutsedge; [8]): 0 | Plant response rating, Ducksalad (0 to 10 scale, 0 is no effect, 10 is complete control) (duck salad; [9]): 0 | Ducksalad plant response rating (0 to 10 scale, 0 is no effect, 10 is complete control) (duck salad; [10]): 0 | Ducksalad plant response rating (duck salad; [11]): 0 | Ducksalad plant response rating (duck salad; [12]): 0 | Plant response rating, S. Flatsedge (0 to 10 scale, 0 is no effect, 10 is complete control) (smallflower flatsedge; [9]): 0 | S. Flatsedge plant response rating (0 to 10 scale, 0 is no effect, 10 is complete control) (smallflower flatsedge; [10]): 0 | S. Flatsedge plant response rating (smallflower flatsedge; [11]): 0 | S. Flatsedge plant response rating (smallflower flatsedge; [12]): 0 | Plant response rating, Cocklebur (cocklebur; [1]): 0 | Plant response rating, Cocklebur (cocklebur; [2]): 0 | Cocklebur plant response rating (cocklebur; [3]): 2 | Plant response rating, Cocklebur (cocklebur; [4]): 5 | Cocklebur plant response rating (cocklebur; [5]): 0 | Cocklebur plant response rating (cocklebur; [6]): 0 | Plant response rating, Cocklebur (cocklebur; [7]): 0 | Plant response rating, Cocklebur (cocklebur; [8]): 0 | Plant response rating, B. signalgrass (surinam grass; [1]): 0 | Plant response rating, B. signalgrass (surinam grass; [2]): 0 | B. signalgrass plant response rating (surinam grass; [3]): 0 | Plant response rating, B. signalgrass (surinam grass; [4]): 4 | B. signalgrass plant response rating (surinam grass; [5]): 0 | B. signalgrass plant response rating (surinam grass; [6]): 2 | Plant response rating, B. signalgrass (surinam grass; [7]): 4 | Plant response rating, B. signalgrass (surinam grass; [8]): 9 | Plant response rating, Giant foxtail (giant foxtail; [1]): 0 | Plant response rating, Giant foxtail (giant foxtail; [2]): 0 | Giant foxtail plant response rating (giant foxtail; [3]): 0 | Plant response rating, Giant foxtail (giant foxtail; [4]): 4 | Giant foxtail plant response rating (giant foxtail; [5]): 9 | Giant foxtail plant response rating (giant foxtail; [6]): 9 | Plant response rating, Giant foxtail (giant foxtail; [7]): 10 | Plant response rating, Giant foxtail (giant foxtail; [8]): 9 | Plant response rating, Redroot pigweed (pigweed; [1]): 0 | Plant response rating, Redroot pigweed (pigweed; [2]): 0 | Redroot pigweed plant response rating (pigweed; [3]): 4 | Redroot pigweed plant response rating (pigweed; [5]): 0 | Redroot pigweed plant response rating (pigweed; [6]): 0 | Plant response rating, Redroot pigweed (pigweed; [7]): 2 | Plant response rating, Redroot pigweed (pigweed; [8]): 7 | Plant response rating, Soybean (soybean; [1]): 0 | Plant response rating, Soybean (soybean; [2]): 0 | Soybean plant response rating (soybean; [3]): 0 | Soybean plant response rating (soybean; [5]): 0 | Soybean plant response rating (soybean; [6]): 0 | Plant response rating, Soybean (soybean; [7]): 0 | Plant response rating, Soybean (soybean; [8]): 0 | Plant response rating, Morningglory (morningglory; [1]): 0 | Plant response rating, Morningglory (morningglory; [2]): 3 | Morningglory plant response rating (morningglory; [3]): 6 | Plant response rating, Morningglory (morningglory; [4]): 6 | Morningglory plant response rating (morningglory; [5]): 0 | Morningglory plant response rating (morningglory; [6]): 0 | Plant response rating, Morningglory (morningglory; [7]): 0 | Plant response rating, Morningglory (morningglory; [8]): 0 | Plant response rating, Barnyardgrass (0 to 10 scale, 0 is no effect, 10 is complete control) (bamyardgrass; [9]): 0 | Barnyardgrass plant response rating (0 to 10 scale, 0 is no effect, 10 is complete control) (bamyardgrass; [10]): 0 | Barnyardgrass plant response rating (bamyardgrass; [11]): 0 | Barnyardgrass plant response rating (bamyardgrass; [12]): 0 | Plant response rating, Wild oats (wild oat; [1]): 0 | Plant response rating, Wild oats (wild oat; [2]): 0 | Wild oats plant response rating (wild oat; [3]): 0 | Wild oats plant response rating (wild oat; [5]): 0 | Wild oats plant response rating (wild oat; [6]): 0 | Plant response rating, Wild oats (wild oat; [7]): 3 | Plant response rating, Wild oats (wild oat; [8]): 6 | Plant response rating, Velvetleaf (velvetleaf; [1]): 0 | Plant response rating, Velvetleaf (velvetleaf; [2]): 3 | Velvetleaf plant response rating (velvetleaf; [3]): 3 | Velvetleaf plant response rating (velvetleaf; [5]): 0 | Velvetleaf plant response rating (velvetleaf; [6]): 0 | Plant response rating, Velvetleaf (velvetleaf; [7]): 0 | Plant response rating, Velvetleaf (velvetleaf; [8]): 0
